Laboratory results from US20140072567A1, “Methods Of Treating And Preventing Glucose Toxicity” (Walter and Eliza Hall Institute of Medical Research, ACN …, priority 2008, published 2014).

Legend:
[1] = tested on: islets from wild type C57BL/6 mice; assay: DNA fragmentation assay (sub-diploid DNA, flow cytometry); assay type: cell-based; conditions: for DNA fragmentation: wild-type islets
Procedure: Uniformly sized islets (excluding very large or necrotic islets) were handpicked into 3.5 cm Petri dishes containing 1.1 mL of complete CMRL. Islets were then cultured with the appropriate stimuli to cause DNA fragmentation. At the end of the culture period, non-attached cells and islets were transferred into polypropylene tubes and washed in PBS. Islets were then dispersed with trypsin (0.1 mg/mL bovine trypsin (Calbiochem) and 2 mmol/L EDTA in PBS) for 5 min at 37° C. Islets were mechanically dispersed using a pipette, washed in PBS, and allowed to recover in complete CMRL medium for 1 h at 37° C. in 5% CO2. Cells were then washed in PBS and resuspended in 250 μL of hypotonic buffer containing 50 mg/mL propidium iodide (Sigma-Aldrich), 0.1% sodium citrate, and 0.1% TritonX-100 which stains nuclear DNA. The cells were then analyzed on a FACSCalibur (Becton Dickinson, Franklin Lakes, N.J., USA) using the FL3 channel. Cells undergoing apoptosis were identified by their sub-diploid DNA content as previously described (Riccardi and Nicoletti, 2006).

[2] = tested on: bak; assay: Real-time qRT-PCR of islets, bak; assay type: cell-based, mice; conditions: 5 μM thapsigargin, data not shown
Procedure: (§1) FIG. 7: Ribose induces expression of Puma and Bax in islets. Quantitative RT-PCR of wild-type islets cultured in control medium or medium containing 50 mM ribose, 33.3 mM glucose or 5 μM thapsigargin for 24 or 48 h. Relative RNA expression levels for (A) Puma (B) Bim and (C) Bax were calculated by normalizing to the signal for β-actin in each sample and comparison to islets cultured in control medium. Mean±SEM of 3-4 independent experiments is shown. Statistical significance *p<0.05, **p<0.01 compared with control (two-tailed paired t-test). RNA was prepared using the RNeasy Kit (Qiagen). First strand cDNA was prepared from 0.1-0.2 μg RNA using the High Capacity RNA-to-cDNA Master Mix (Applied Biosystems). Real-time PCR was performed using the ABI Prism 7900 (Applied Biosystems) and the Power SYBR Green PCR Master Mix (Applied Biosystems) in 15 μl reaction volumes. Data analyses were performed with the CT method using actin as an internal control. qRT-PCR was performed using the following forward and reverse primers (a kind gift from Drs DCS Huang and M Narita) (Table 1).

[3] = tested on: puma; assay: Real-time qRT-PCR of islets, puma; assay type: cell-based, mice
Procedure: as §1

[4] = tested on: bax; assay: Real-time qRT-PCR of islets, bax; assay type: cell-based, mice
Procedure: as §1

[5] = tested on: bim; assay: Real-time qRT-PCR of islets, bim; assay type: cell-based, mice; conditions: for up-regulation of bim mRNA: islets exposed to high concentrations of glucose or ribose
Procedure: as §1

[6] = tested on: wild type islets; assay: Glucose-stimulated insulin secretion assay; assay type: cell-based, mice; conditions: wild type islets exposed to ribose (50 mM) for two days
Procedure: Insulin secretion assays were performed as previously described (Thomas et al., 2002). Two hundred islets were cultured in complete CMRL and ribose for 2 days, then washed three times in Krebs-Ringer bicarbonate buffer (KRB; 25 mmol/l HEPES, 115 mmol/l NaCl, 24 mmol/l NaHCO3, 5 mmol/l MgCl2, 2.5 mmol/l CaCl2, pH 7.4) with 3 mmol/l glucose and 0.1% BSA. Groups of 20 islets in quadruplicate were incubated for 30 min in 200 μl KRB containing 3 mmol/l glucose under 5% CO2/95% air with shaking at 37° C., followed by a second incubation in 200 μl KRB containing either 3 or 20 mmol/l glucose. Buffer was sampled for insulin after 30 min using a mouse insulin ELISA kit (Linco Research, Mo., USA).

[7] = tested on: islets from wild-type mice; assay: Cytochrome c release from mitochondria (flow cytometry); assay type: cell-based
Procedure: FIG. 1: Wild-type islets cultured in high concentrations of glucose or ribose undergo DNA fragmentation and mitochondrial release of cytochrome C, both indicative of apoptosis, and have a reduced ability to secrete insulin. (A) 200 islets from wild-type C57BL/6 mice were either cultured in low glucose medium (5.6 mM) (unt) or cultured in high glucose media (33.3 mM) for 6 days or high ribose medium (50 mM) for 4 days and DNA fragmentation was measured. Representative flow cytometry profiles are shown i). Data represent islets from 13-17 individual mice per group ii). Statistical significance; *p<0.001 compared with unt (one-way ANOVA). (B) 100 islets from wild-type mice were cultured under conditions mentioned above for 4 and 3 days respectively and cytochrome C release was measured. Representative flow cytometry profiles are shown i). Data represent islets from 4 individual mice per group. ii) Statistical significance; *p<0.001 ** p<0.05 compared with unt (one-way ANOVA). (C) wild-type islets were cultured in high concentrations of ribose (50 mM) for 2 days and insulin release was measured after glucose stimulation. Statistical significance; *p<0.01 compared with unt (one-way ANOVA). […]

[8] = tested on: iNOS; assay: Western blotting for iNOS expression in islets; assay type: cell-based, mice; conditions: islets cultured in high glucose (33.3 mM) in the presence of IFNγ
Procedure: (§2) FIG. 2: IL-1β or Fas are not required for glucose or ribose induced beta cell apoptosis. (A) 200 islets from wild-type, IL-1R^−/− and B6^lpr/lpr mice were cultured for 6 days in 5.6 mM low glucose medium (unt) or 33.3 mM D-glucose or for 4 days in 50 mM ribose. DNA fragmentation was measured by flow cytometry. (B) 100 wild-type islets were cultured for 7 days in 5.6 mM or 33.3 mM D-glucose with cytokines added in the last 4 days and iNOS expression, NO production and DNA fragmentation was measured. Representative Western blot for iNOS expression (β-actin used as loading control). (C) NO2 determination of culture supernatant (D) DNA fragmentation was measured by flow cytometry. (E) Wild-type islets were cultured in 50 mM ribose or cytokines for 2 days, 33.3 mM D-glucose for 4 days (solid lines) compared to islets cultured in 5.6 mM D-glucose (broken lines). Fas expression on β cells was analysed by FACS analysis. (F) Wild-type islets cultured for 7 days in 5.6 mM (−) or 33.3 mM (+) glucose with cytokines or FasL added in the last 4 days. The data represent the mean±S.E.M of three experiments. Islets were incubated for 4 days with cytokines and 33.3 mM glucose, transferred to microcentrifuge tubes and washed three times in PBS. […]

[9] = tested on: Fas; assay: Fas expression on islet beta cells by flow cytometry; assay type: cell-based, mice; conditions: high glucose (33.3 mM, 4 days) compared to untreated controls
Procedure: as §2, with “Islets cells” for “Islets”, “analysed” for “incubated”, “expression of Fas by flow cytometry as previously described (Thomas et al., 1999). Islets were dispersed into single cells as described above” for “4 days with cytokines”, “stained using standard procedures.” for “33.3 mM glucose, transferred to microcentrifuge tubes and washed three times in PBS.”

z-Val-Ala-Aspfluoromethylketone [z-VAD.fmk, reference compound]
inhibition of ribose-induced islet cell DNA fragmentation ([1]; pan-caspase inhibitor used at 100 μmol/L): significantly inhibited

C/C=C(/C)C(=O)O[C@H]1C(C)=C2[C@H]([C@@H]1OC(=O)CCCCCCC)[C@@](C)(OC(C)=O)C[C@H](OC(=O)CCC)[C@@]1(O)[C@H]2OC(=O)[C@@]1(C)O [thapsigargin, reference compound]
increase in expression of bak [2]: 2-7 fold
increase in expression of puma ([3]; 5 μM thapsigargin, 24 or 48 h): 2-7 fold
increase in expression of bax ([4]; 5 μM thapsigargin, 24 or 48 h): 2-7 fold
increase in expression of bim ([5]; 5 μM thapsigargin): not

O=C[C@H](O)[C@H](O)[C@H](O)CO [ribose, D-ribose]
insulin secretory function after glucose stimulation [6]: significant loss
release of cytochrome c from the mitochondria ([7]; high ribose (50 mM), 3 days, compared to high glucose): more pronounced
DNA fragmentation ([1]; 50 mM ribose, 4-day period, compared to high concentrations of glucose): significantly more DNA fragmentation
increase in expression of puma ([3]; 50 mM ribose, 48 h): 4 fold
increase in expression of bax ([4]; 50 mM ribose, 48 h): 4 fold
up-regulation of bim mRNA [5]: no up-regulation
Bim expression ([5]; ribose incubation (50 mM)): remained unchanged

O=C[C@H](O)[C@@H](O)[C@H](O)[C@H](O)CO [D-glucose]
iNOS expression [8]: no iNOS expression
release of cytochrome c from the mitochondria ([7]; high glucose (33.3 mM), 4 days, compared to untreated islets): significant increase
Fas expression on islet cells [9]: slight but insignificant rise
DNA fragmentation ([1]; 33.3 mM D-glucose, 6 days, compared to low glucose media (5.6 mM)): modest but significant increase
up-regulation of bim mRNA [5]: no up-regulation
